The NIST ThermoML archive (doi:10.1016/j.jct.2016.10.035)
Numbers after ± are expanded uncertainties.

Conditions: 298.15 K; 100 kPa; Crystal; X-ray diffraction

mass density: 3155 ± 12 kg/m3
SMILES: O=P([O-])([O-])[O-].O=P([O-])([O-])[O-].O=P([O-])([O-])[O-].[Ca+2].[Ca+2].[Ca+2].[Ca+2].[Ca+2].[OH-] [hydroxyapatite]
